Source: patent EP0976707A1, “CYCLOALKYL BENZYL ETHER COMPOUNDS” (Nissan Chemical Industries, Ltd., priority 1997, dated 1998)

Experiments:
Type in all cases: in vivo
Monochoria vaginalis [1] = test: Herbicidal effect test under submerged conditions, inhibition ratio (Test Example 6); details: Pontederia vaginalis, 504 h, live weight of aerial part, three weeks after the treatment, read-out: inhibition ratio (%), C (Monochoria vaginalis); for pest or weed control at 4 g/ha: dosage 4 g/ha
From the text: (§1) [Test Example 6] Herbicidal effect test under submerged conditions
(§2) In a 1/5,000-are Wagner pot was filled alluvial soil, which was mixed with water introduced therein to establish submerged conditions at a water depth of 4 cm. After seeds of Monochoria vaginalis and Scirpus juncoides were sowed mixedly in the pot, 2.5 leaf stage rice seedlings were transplanted at a depth of 2 cm. On the next day of transplantation of the rice, the compound of the present invention prepared according to one of Composition Examples was applied. Three weeks after the treatment, the live weights of aerial parts of each kind of the weeds and rice were measured and inhibition ratios (%) were obtained according to Test Example 4. In the tables, (E) indicates expected values obtained by the equation of Colby and (F) indicates found values. Left side values and right side values in the column of application rate for each active ingredient indicate corresponding dosages of compounds in the column of compound name.
(§3) Synergistic herbicidal effect of herbicide mixtures will be explained as follows. That is, individual active compounds in many cases may be deficient in their herbicidal activity. In such a case, if the herbicidal activity of two active compounds in combination is higher than the simple sum of the activities of the compounds (expected activity), then this is called synergistic action. The expected activity from the stable combination of two herbicides, can be calculated as follows. (cf. Colby, S. R., Calculation of Synergistic and Antagonistic Reactions of Combination of Herbicides, Weed, vol. 15, pages 20-22 (1967)) E = α + β - ( α · β / 100) [formula] α : Inhibition ratio when herbicide A is applied in a rate of a kg/ha β : Inhibition ratio when herbicide B is applied in a rate of b kg/ha E : Inhibition ratio expected when herbicide A is applied in a rate of a kg/ha and herbicide B is applied in a rate of b kg/ha.

Scirpus juncoides [2] = test: as above; details: Schoenoplectiella juncoides, 504 h, live weight of aerial part, three weeks after the treatment, read-out: inhibition ratio (%), B (Scirpus juncoides); for pest or weed control at 4 g/ha: dosage 4 g/ha
From the text: as §1, §2, §3

transplanted rice [3] = test: as above; details: live weight of aerial part, three weeks after the treatment
From the text: Herbicidal effect test under submerged conditions
In a 1/5,000-are Wagner pot was filled alluvial soil, which was mixed with water introduced therein to establish submerged conditions at a water depth of 4 cm. After seeds of Monochoria vaginalis and Scirpus juncoides were sowed mixedly in the pot, 2.5 leaf stage rice seedlings were transplanted at a depth of 2 cm. On the next day of transplantation of the rice, the compound of the present invention prepared according to one of Composition Examples was applied. […] In the tables, (E) indicates expected values obtained by the equation of Colby and (F) indicates found values.
The expected activity from the stable combination of two herbicides, can be calculated as follows.

rice plant = test: Phytotoxicity test under shallow planting conditions for rice plant (Test Example 4); details: aerial part, three weeks after the treatment
From the text: [Test Example 4] Phytotoxicity test under shallow planting conditions for rice plant In a 1/5,000-are Wagner pot was filled alluvial soil, which was mixed with water introduced therein to establish submerged conditions at a water depth of 4 cm. Rice seedlings at 2.5 leaf stage were transplanted at a depth of 0.5 cm and the roots were exposed to the air. On the day when the transplantation was made, the compound of the present invention prepared according to one of Composition Examples was applied. Three weeks after the treatment, the live weight of the aerial part of the plant was measured and inhibition ratio (%) was obtained according to the following equation. Inhibition ratio (%) = (1 -(live weight of aerial part of treated plant)/(live weight of aerial part of non-treated plant)) x 100 [formula]

Monochoria vaginalis [4] = test: Herbicidal effect test under submerged conditions (Test Example 5); parameters: key: 0 indicating no influence; 5 indicating complete withering; details: three weeks after the treatment, rating 0-5
From the text: (§4) [Test Example 5] Herbicidal effect test under submerged conditions
(§5) In a 1/10,000-are Wagner pot was filled alluvial soil, which was mixed with water introduced therein to establish submerged conditions at a water depth of 4 cm. Respective seeds of Monochoria vaginalis, Rotala indica and Scirpus juncoides were sowed mixedly in the pot and then treated with the compound of the present invention prepared according to one of Composition Examples. Three weeks after the treatment, the herbicidal effect on the various weeds was examined.

Rotala indica [5] = test: as above; parameters: key: 0 indicating no influence; 5 indicating complete withering; details: three weeks after the treatment, rating 0-5
From the text: as §4, §5

Scirpus juncoides [6] = test: as above; parameters: key: 0 indicating no influence; 5 indicating complete withering; details: three weeks after the treatment, rating 0-5
From the text: as §4, §5

[7] = system: Echinochloa crus-galli var. crus-galli; test: Comparative test, pre-emergence treatment under submerged conditions (as Test Example 1); parameters: key: 0 indicating no influence; 5 indicating complete withering; details: three weeks after the treatment, rating 0-5
From the text: (§6) [Test Example 1] Herbicidal effect test by pre-emergence treatment to weeds under submerged conditions
(§7) In a 1/10,000-are Wagner pot was filled alluvial soil, which was mixed with water introduced therein to establish submerged conditions at a water depth of 4 cm. Respective seeds of Echinochloa crus-galli var. crus-galli, Monochoria vaginalis, Rotala indica and Scirpus juncoides were sowed mixedly in the pot and then 2.5 leaf stage rice seedlings were transplanted. The pot was placed in a greenhouse at 25 to 30°C to grow the plant. One day after the sowing, the compound of the present invention prepared according to one of Composition Examples was applied onto the water surface at a predetermined application rate. Three weeks after the treatment, the herbicidal effect on the rice plant and each kind of the weeds was examined. There was used five rating evaluation, with 0 indicating no influence and 5 indicating complete withering.
(§8) [drawing 170] (diastreomer-(1) and (2)) involved in the claims of WO 97/02258 and the compound No. A-5 of the present invention were carried out in manners similar to that in test example 1 and 2.

Monochoria vaginalis [8] = test: as above; parameters: key: 0 indicating no influence; 5 indicating complete withering; details: three weeks after the treatment, rating 0-5
From the text: as §6, §7, §8

Rotala indica [9] = test: as above; parameters: key: 0 indicating no influence; 5 indicating complete withering; details: three weeks after the treatment, rating 0-5
From the text: as §6, §7, §8

Scirpus juncoides [10] = test: as above; parameters: key: 0 indicating no influence; 5 indicating complete withering; details: three weeks after the treatment, rating 0-5
From the text: as §6, §7, §8

transplanted rice [11] = test: as above; parameters: key: 0 indicating no influence; 5 indicating complete withering; details: pre-emergence treatment to weeds, three weeks after the treatment, rating 0-5
From the text: as §6, §7, §8

[12] = system: Echinochloa crus-galli var. crus-galli; test: Comparative test, post-emergence treatment under submerged conditions (as Test Example 2); parameters: key: 0 indicating no influence; 5 indicating complete withering; details: three weeks after the treatment, rating 0-5
From the text: (§9) [Test Example 2] Herbicidal effect test by post-emergence treatment to weeds under submerged conditions
as §7, with “When Echinochloa crus-galli var. crus-galli, Monochoria vaginalis, Rotala indica and Scirpus juncoides reached 1 to 2 leaf stage and” for “One day after”, “rice plant reached 4 leaf stage,” for “sowing,”, “on” for “on the rice plant and”, “examined in accordance” for “examined. There was used five rating evaluation,”, “the criteria of judgment in Test Example 1.” for “0 indicating no influence and 5 indicating complete withering.”
as §8

Monochoria vaginalis [13] = test: as above; parameters: key: 0 indicating no influence; 5 indicating complete withering; details: three weeks after the treatment, rating 0-5
From the text: as §9
as §7, with “When Echinochloa crus-galli var. crus-galli, Monochoria vaginalis, Rotala indica and Scirpus juncoides reached 1 to 2 leaf stage and” for “One day after”, “rice plant reached 4 leaf stage,” for “sowing,”, “on” for “on the rice plant and”, “examined in accordance” for “examined. There was used five rating evaluation,”, “the criteria of judgment in Test Example 1.” for “0 indicating no influence and 5 indicating complete withering.”
as §8

Scirpus juncoides [14] = test: as above; parameters: key: 0 indicating no influence; 5 indicating complete withering; details: three weeks after the treatment, rating 0-5
From the text: as §9
as §7, with “When Echinochloa crus-galli var. crus-galli, Monochoria vaginalis, Rotala indica and Scirpus juncoides reached 1 to 2 leaf stage and” for “One day after”, “rice plant reached 4 leaf stage,” for “sowing,”, “on” for “on the rice plant and”, “examined in accordance” for “examined. There was used five rating evaluation,”, “the criteria of judgment in Test Example 1.” for “0 indicating no influence and 5 indicating complete withering.”
as §8

Rotala indica [15] = test: as above; details: three weeks after the treatment, rating 0-5
From the text: as §9
as §7, with “When Echinochloa crus-galli var. crus-galli, Monochoria vaginalis, Rotala indica and Scirpus juncoides reached 1 to 2 leaf stage and” for “One day after”, “rice plant reached 4 leaf stage,” for “sowing,”, “on” for “on the rice plant and”, “examined in accordance” for “examined. There was used five rating evaluation,”, “the criteria of judgment in Test Example 1.” for “0 indicating no influence and 5 indicating complete withering.”
as §8

CCOC(=O)c1cnn(C)c1S(=O)(=O)NC(=O)Nc1nc(OC)cc(OC)n1 [R-2, pyrazosulfuron ethyl]
pest or weed control at 2 g/ha (Monochoria vaginalis [1]; dosage 2 g/ha): 80%
pest or weed control at 2 g/ha (Scirpus juncoides [2]; dosage 2 g/ha): 71%
inhibition ratio (%), a (transplanted rice) (transplanted rice [3]; dosage 2 g/ha): 0%

COC(=O)c1ccccc1CS(=O)(=O)NC(=O)Nc1nc(OC)cc(OC)n1 [R-9, bensulfuron methyl]
pest or weed control at 4 g/ha (Monochoria vaginalis [1]): 69%
pest or weed control at 4 g/ha (Scirpus juncoides [2]): 68%

C=C(C)[C@@H]1C[C@@H]2O[C@]2(C)[C@H](OCc2ccccc2F)C1 [A-5, (1S, 2R, 4S, 6S)-2-(2-fluorobenzyloxy)-4-isopropenyl-1-methyl-7-oxabicyclo[4.1.0]heptane]
the ratio of live weight to the non-treated area (%) (rice plant; dosage 125 g/ha): 86%
the ratio of live weight to the non-treated area (%) (rice plant; dosage 250 g/ha): 67%
herbicidal effect, C (Monochoria vaginalis) (Monochoria vaginalis [4]; dosage 125 g/ha): 3
herbicidal effect, C (Monochoria vaginalis) (Monochoria vaginalis [4]; dosage 250 g/ha): 5
herbicidal effect, C (Monochoria vaginalis) (Monochoria vaginalis [4]; dosage 500 g/ha): 5
herbicidal effect, D (Rotala indica) (Rotala indica [5]; dosage 125 g/ha): 2
herbicidal effect, D (Rotala indica) (Rotala indica [5]; dosage 250 g/ha): 4
herbicidal effect, D (Rotala indica) (Rotala indica [5]; dosage 500 g/ha): 5
herbicidal effect, B (Scirpus juncoides) (Scirpus juncoides [6]; dosage 125 g/ha): 4
herbicidal effect, B (Scirpus juncoides) (Scirpus juncoides [6]; dosage 250 g/ha): 5
herbicidal effect, B (Scirpus juncoides) (Scirpus juncoides [6]; dosage 500 g/ha): 5
pest or weed control at 25 g/ha (Monochoria vaginalis [1]; dosage 25 g/ha): 59%
pest or weed control at 25 g/ha (Scirpus juncoides [2]; dosage 25 g/ha): 52%
inhibition ratio (%), a (transplanted rice) (transplanted rice [3]; dosage 25 g/ha): 0%
herbicidal effect, A (Echinochloa crus-galli var. crus-galli) ([7]; dosage 12.5 g/ha): 5
herbicidal effect, A (Echinochloa crus-galli var. crus-galli) ([7]; dosage 50 g/ha): 5
herbicidal effect, A (Echinochloa crus-galli var. crus-galli) ([7]; dosage 200 g/ha): 5
herbicidal effect, C (Monochoria vaginalis) (Monochoria vaginalis [8]; dosage 12.5 g/ha): 2
herbicidal effect, C (Monochoria vaginalis) (Monochoria vaginalis [8]; dosage 50 g/ha): 5
herbicidal effect, C (Monochoria vaginalis) (Monochoria vaginalis [8]; dosage 200 g/ha): 5
herbicidal effect, D (Rotala indica) (Rotala indica [9]; dosage 12.5 g/ha): 2
herbicidal effect, D (Rotala indica) (Rotala indica [9]; dosage 50 g/ha): 5
herbicidal effect, D (Rotala indica) (Rotala indica [9]; dosage 200 g/ha): 5
herbicidal effect, B (Scirpus juncoides) (Scirpus juncoides [10]; dosage 12.5 g/ha): 2
herbicidal effect, B (Scirpus juncoides) (Scirpus juncoides [10]; dosage 50 g/ha): 3
herbicidal effect, B (Scirpus juncoides) (Scirpus juncoides [10]; dosage 200 g/ha): 5
herbicidal effect, a (transplanted rice) (transplanted rice [11]; dosage 12.5 g/ha): 0
herbicidal effect, a (transplanted rice) (transplanted rice [11]; dosage 50 g/ha): 0
herbicidal effect, a (transplanted rice) (transplanted rice [11]; dosage 200 g/ha): 0
herbicidal effect, A (Echinochloa crus-galli var. crus-galli) ([12]; dosage 12.5 g/ha): 1
herbicidal effect, A (Echinochloa crus-galli var. crus-galli) ([12]; dosage 50 g/ha): 5
herbicidal effect, A (Echinochloa crus-galli var. crus-galli) ([12]; dosage 200 g/ha): 5
herbicidal effect, C (Monochoria vaginalis) (Monochoria vaginalis [13]; dosage 12.5 g/ha): 1
herbicidal effect, C (Monochoria vaginalis) (Monochoria vaginalis [13]; dosage 50 g/ha): 4
herbicidal effect, C (Monochoria vaginalis) (Monochoria vaginalis [13]; dosage 200 g/ha): 5
herbicidal effect, B (Scirpus juncoides) (Scirpus juncoides [14]; dosage 12.5 g/ha): 1
herbicidal effect, B (Scirpus juncoides) (Scirpus juncoides [14]; dosage 50 g/ha): 3
herbicidal effect, B (Scirpus juncoides) (Scirpus juncoides [14]; dosage 200 g/ha): 5
herbicidal effect, D (Rotala indica) (Rotala indica [15]; dosage 12.5 g/ha): 1
herbicidal effect, D (Rotala indica) (Rotala indica [15]; dosage 50 g/ha): 3
herbicidal effect, D (Rotala indica) (Rotala indica [15]; dosage 200 g/ha): 4

COc1cc(OC)nc(NC(=O)NS(=O)(=O)c2c(Cl)nc3ccccn23)n1 [R-4, imazosulfuron]
pest or weed control at 4 g/ha (Monochoria vaginalis [1]): 65%
pest or weed control at 4 g/ha (Scirpus juncoides [2]): 60%

COc1cc(OC)nc(NC(=O)NS(=O)(=O)Nc2ccccc2C(=O)C2CC2)n1 [R-6, cyclosulfamuron]
pest or weed control at 4 g/ha (Monochoria vaginalis [1]): 77%
pest or weed control at 4 g/ha (Scirpus juncoides [2]): 78%
inhibition ratio (%), a (transplanted rice) (transplanted rice [3]; dosage 4 g/ha): 0%
